From patent publication US20250320189A1, “NEW DERIVATIVES FOR TREATING TRPM3 MEDIATED DISORDERS” (Katholieke Universiteit Leuven, priority 2022, published 2025)

Molecular target: T1, mouse TRPM3α2 (mTRPM3) ion channel (Mus musculus, UniProt J9SQF3)
T1 construct: expressed in transfected cells; host or cells: flip-in (Flp-In) HEK293
Experiment: Monitoring the TRPM3 ion channel driven Ca2+ uptake (Fluo-4 AM assay)
Type: cell-based
Conditions: mTRPM3alpha2 overexpressing flip-in HEK293 cells, stimulated with Pregnenolone sulfate (PS) 50 μM
Description: In order to monitor the inhibition of the mouse TRPM3α2 (mTRPM3) ion channel by the compounds of the invention, a cellular system making use of an mTRPM3alpha2 or hTRPM3 overexpressing cell line (flip-in HEK293) was used. The TRPM3 channel was stimulated/opened with Pregnenolone sulfate (PS) (50 μM) which results in Ca^2+ influx.
For mTRPM3, the intracellular Ca^2+ was measured with a Calcium responsive dye, Fluor-4 AMV ester (Invitrogen). Cells were cultured until a confluence of 80-90%, washed with Versene (Invitrogen) and detached from the surface by a short incubation with 0.05% Trypsin (Invitrogen). The trypsination process was stopped by the addition of complete cell culture medium (DMEM, glutamax, 10% FCS, NEAA,Pen-Strep). Cells were collected and resuspended in Krebs buffer without Calcium at RT.
Prior the cell seeding (±2000 cells/well into a black, 384 well plate (Greiner)) the diluted compound was added in the assay plate, together with the PS dissolved in Krebs buffer containing Calcium. […] Directly after cell addition the plates were read on an Envision fluorescence reader (PerkinElmer) by an Excitation of 485 nm and emission at 535 nm.
Channel inhibition was calculated compared to a non-PS stimulated control versus a condition stimulated with PS (50 μM) with vehicle. The ability of the compounds of the invention to inhibit this activity was determined as: Percentage inhibition=[1−((RFU determined for sample with test compound present−RFU determined for sample with positive control inhibitor) divided by (RFU determined in the presence of vehicle−RFU determined for sample with positive control inhibitor))]*100.
The activities of the Example compounds tested are depicted in the table below. The activity ranges A, B and C refer to IC50 values in the Fluo-4 AM assay as follows: “A”: IC50<1 μM; “B”: 1 μM≤IC50≤20 μM and “C”: IC50>20 μM

T1 sequence (J9SQF3 1-1709 isoform J9SQF3-12): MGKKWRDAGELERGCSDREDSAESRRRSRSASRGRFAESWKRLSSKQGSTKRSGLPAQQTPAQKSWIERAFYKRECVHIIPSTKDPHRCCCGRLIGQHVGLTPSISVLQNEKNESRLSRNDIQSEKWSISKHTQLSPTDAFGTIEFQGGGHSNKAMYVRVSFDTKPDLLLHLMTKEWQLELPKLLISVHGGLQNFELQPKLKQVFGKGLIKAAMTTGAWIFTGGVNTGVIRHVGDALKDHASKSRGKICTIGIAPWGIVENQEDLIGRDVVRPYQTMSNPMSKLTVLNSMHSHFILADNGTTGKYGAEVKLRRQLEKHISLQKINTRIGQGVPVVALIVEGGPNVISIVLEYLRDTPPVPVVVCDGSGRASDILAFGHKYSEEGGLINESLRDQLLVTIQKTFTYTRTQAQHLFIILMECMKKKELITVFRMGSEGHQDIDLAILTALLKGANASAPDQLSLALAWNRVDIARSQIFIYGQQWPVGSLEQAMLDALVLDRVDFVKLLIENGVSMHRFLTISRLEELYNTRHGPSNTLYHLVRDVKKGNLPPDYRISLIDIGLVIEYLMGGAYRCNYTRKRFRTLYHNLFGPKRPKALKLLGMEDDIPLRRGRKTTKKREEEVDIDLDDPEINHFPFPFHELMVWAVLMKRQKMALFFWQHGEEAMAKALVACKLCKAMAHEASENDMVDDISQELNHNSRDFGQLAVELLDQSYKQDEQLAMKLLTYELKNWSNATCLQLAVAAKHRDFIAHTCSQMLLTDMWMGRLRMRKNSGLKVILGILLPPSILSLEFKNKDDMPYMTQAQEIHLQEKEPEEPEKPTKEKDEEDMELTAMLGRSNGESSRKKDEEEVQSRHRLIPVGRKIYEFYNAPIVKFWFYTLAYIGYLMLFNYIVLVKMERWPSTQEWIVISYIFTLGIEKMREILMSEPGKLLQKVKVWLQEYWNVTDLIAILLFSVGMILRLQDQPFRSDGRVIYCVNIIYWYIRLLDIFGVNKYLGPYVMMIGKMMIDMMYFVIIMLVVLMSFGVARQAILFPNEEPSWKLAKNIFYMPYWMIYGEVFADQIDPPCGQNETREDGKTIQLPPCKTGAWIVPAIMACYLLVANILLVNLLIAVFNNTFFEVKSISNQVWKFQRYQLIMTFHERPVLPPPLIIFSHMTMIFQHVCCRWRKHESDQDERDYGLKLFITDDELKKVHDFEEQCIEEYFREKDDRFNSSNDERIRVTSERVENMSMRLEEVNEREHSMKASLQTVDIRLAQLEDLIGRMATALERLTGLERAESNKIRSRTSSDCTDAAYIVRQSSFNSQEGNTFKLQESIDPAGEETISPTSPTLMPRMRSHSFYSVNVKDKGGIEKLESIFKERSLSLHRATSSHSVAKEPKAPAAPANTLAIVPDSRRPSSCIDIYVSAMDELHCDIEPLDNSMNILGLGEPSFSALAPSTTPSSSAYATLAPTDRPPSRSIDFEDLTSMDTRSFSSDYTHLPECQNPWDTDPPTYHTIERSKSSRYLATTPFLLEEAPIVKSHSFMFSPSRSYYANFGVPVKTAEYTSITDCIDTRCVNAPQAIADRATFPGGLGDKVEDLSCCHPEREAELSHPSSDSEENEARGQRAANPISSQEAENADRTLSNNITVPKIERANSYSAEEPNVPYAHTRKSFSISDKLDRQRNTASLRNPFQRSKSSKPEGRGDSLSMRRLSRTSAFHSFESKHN

For `Cc1oc2ccc(OCC3CC3(F)F)cc2c1C(=O)N[C@@H](CO)C(N)=O` (single isomer, unassigned) [Cpd 002 - En1], the IC50 was less than 1000 nM.
`Cc1oc2ccc(OCC3CC3(F)F)cc2c1C(=O)N[C@@H](CO)C(N)=O` (single isomer, unassigned) [Cpd 002 - En2] was tested, and the IC50 was less than 1000 nM.
`Cc1oc2ccc(OCC3(C(F)F)CC3)cc2c1C(=O)NC(C)(CO)C(N)=O` (single isomer, unassigned) [Cpd 014 - En1, 2-[(5-{[1-(difluoromethyl)cyclopropyl]methoxy}-2-methyl-1-benzofuran-3-yl)formamido]-3-hydroxy-2-methylpropanamide] gave an IC50 of less than 1000 nM.
For `Cc1oc2ccc(OCC3(C(F)F)CC3)cc2c1C(=O)NC(C)(CO)C(N)=O` (single isomer, unassigned) [Cpd 014 - En2, 2-[(5-{[1-(difluoromethyl)cyclopropyl]methoxy}-2-methyl-1-benzofuran-3-yl)formamido]-3-hydroxy-2-methylpropanamide], the IC50 was less than 1000 nM.
`Cc1oc2ccc(OCC3CC3)cc2c1C(=O)NC(C)(CO)C(N)=O` (single isomer, unassigned) [Cpd 017 - En1, 2-{[5-(cyclopropylmethoxy)-2-methyl-1-benzofuran-3-yl]formamido}-3-hydroxy-2-methylpropanamide] gave an IC50 of less than 1000 nM.
In the case of `Cc1oc2ccc(OCC3CC3)cc2c1C(=O)NC(C)(CO)C(N)=O` (single isomer, unassigned) [Cpd 017 - En2, 2-{[5-(cyclopropylmethoxy)-2-methyl-1-benzofuran-3-yl]formamido}-3-hydroxy-2-methylpropanamide], the IC50 is reported as less than 1000 nM.
For `Cc1oc2ccc(OCC3CCC3)cc2c1C(=O)NC1CCNCC1(F)F` (single isomer, unassigned) [Cpd 019 - En1, 5-(cyclobutylmethoxy)-N-(3,3-difluoropiperidin-4-yl)-2-methyl-1-benzofuran-3-carboxamide], the IC50 was 1000 to 20000 nM.
With `Cc1oc2ccc(OCC3CCC3)cc2c1C(=O)NC1CCNCC1(F)F` (single isomer, unassigned) [Cpd 019 - En2, 5-(cyclobutylmethoxy)-N-(3,3-difluoropiperidin-4-yl)-2-methyl-1-benzofuran-3-carboxamide] the IC50 was less than 1000 nM.
Work on `Cc1oc2ccc(OCC3CC3)cc2c1C(=O)NC1CCNCC1(F)F` (single isomer, unassigned) [Cpd 024-En1, 5-(cyclopropylmethoxy)-N-(3,3-difluoropiperidin-4-yl)-2-methyl-1-benzofuran-3-carboxamide] yielded an IC50 of 1000 to 20000 nM.
Work on `Cc1oc2ccc(OCC3CC3)cc2c1C(=O)NC1CCNCC1(F)F` (single isomer, unassigned) [Cpd 024-En2, 5-(cyclopropylmethoxy)-N-(3,3-difluoropiperidin-4-yl)-2-methyl-1-benzofuran-3-carboxamide] yielded an IC50 of less than 1000 nM.
In the case of `Cc1oc2ccc(OCC3CC3)cc2c1C(=O)NC1(CO)CCCNC1=O` (single isomer, unassigned) [Cpd 027 - En1, 5-(cyclopropylmethoxy)-N-[3-(hydroxymethyl)-2-oxopiperidin-3-yl]-2-methyl-1-benzofuran-3-carboxamide], the IC50 is reported as less than 1000 nM.
`Cc1oc2ccc(OCC3CC3)cc2c1C(=O)NC1(CO)CCCNC1=O` (single isomer, unassigned) [Cpd 027 - En2, 5-(cyclopropylmethoxy)-N-[3-(hydroxymethyl)-2-oxopiperidin-3-yl]-2-methyl-1-benzofuran-3-carboxamide] was tested, and the IC50 was 1000 to 20000 nM.
Work on `Cc1oc2ccc(OCC3CC3)cc2c1C(=O)NC1(CO)CCNC1=O` (single isomer, unassigned) [Cpd 028 - En1, 5-(cyclopropylmethoxy)-N-[3-(hydroxymethyl)-2-oxopyrrolidin-3-yl]-2-methyl-1-benzofuran-3-carboxamide] yielded an IC50 of less than 1000 nM.
Work on `Cc1oc2ccc(OCC3CC3)cc2c1C(=O)NC1(CO)CCNC1=O` (single isomer, unassigned) [Cpd 028 - En2, 5-(cyclopropylmethoxy)-N-[3-(hydroxymethyl)-2-oxopyrrolidin-3-yl]-2-methyl-1-benzofuran-3-carboxamide] yielded an IC50 of less than 1000 nM.
In the case of `Cc1oc2ccc(OCC3CC3(F)F)cc2c1C(=O)NC1CCNCC1(F)F` (single isomer, unassigned) [Cpd 031 - En1, 5-[(2,2-difluorocyclopropyl)methoxy]-N-(3,3-difluoropiperidin-4-yl)-2-methyl-1-benzofuran-3-carboxamide], the IC50 is reported as 1000 to 20000 nM.
`Cc1oc2ccc(OCC3CC3(F)F)cc2c1C(=O)NC1CCNCC1(F)F` (single isomer, unassigned) [Cpd 031 - En2, 5-[(2,2-difluorocyclopropyl)methoxy]-N-(3,3-difluoropiperidin-4-yl)-2-methyl-1-benzofuran-3-carboxamide] showed an IC50 of less than 1000 nM.
`Cc1oc2ccc(OCC3CC3(F)F)cc2c1C(=O)NC1CCNCC1(F)F` (single isomer, unassigned) [Cpd 031 - En3, 5-[(2,2-difluorocyclopropyl)methoxy]-N-(3,3-difluoropiperidin-4-yl)-2-methyl-1-benzofuran-3-carboxamide] gave an IC50 of 1000 to 20000 nM.
`Cc1oc2ccc(OCC3CC3(F)F)cc2c1C(=O)NC1CCNCC1(F)F` (single isomer, unassigned) [Cpd 031 - En4, 5-[(2,2-difluorocyclopropyl)methoxy]-N-(3,3-difluoropiperidin-4-yl)-2-methyl-1-benzofuran-3-carboxamide] was tested, and the IC50 was less than 1000 nM.
`Cc1oc2ccc(OCC3(C)CC3)cc2c1C(=O)NC1CCNCC1(F)F` (single isomer, unassigned) [Cpd 032 - En1, N-(3,3-difluoropiperidin-4-yl)-2-methyl-5-[(1-methylcyclopropyl)methoxy]-1-benzofuran-3-carboxamide] was tested, and the IC50 was less than 1000 nM.
Molecule `Cc1oc2ccc(OCC3(C)CC3)cc2c1C(=O)NC1CCNCC1(F)F` (single isomer, unassigned) [Cpd 032 - En2, N-(3,3-difluoropiperidin-4-yl)-2-methyl-5-[(1-methylcyclopropyl)methoxy]-1-benzofuran-3-carboxamide] has an IC50 of 1000 to 20000 nM.
With `Cc1oc2ccc(OCC3CC3(C)C)cc2c1C(=O)NC1CCNCC1(F)F` (single isomer, unassigned) [Cpd 033-En1, N-(3,3-difluoropiperidin-4-yl)-5-[(2,2-dimethylcyclopropyl)methoxy]-2-methyl-1-benzofuran-3-carboxamide] the IC50 was 1000 to 20000 nM.
`Cc1oc2ccc(OCC3CC3(C)C)cc2c1C(=O)NC1CCNCC1(F)F` (single isomer, unassigned) [Cpd 033-En2, N-(3,3-difluoropiperidin-4-yl)-5-[(2,2-dimethylcyclopropyl)methoxy]-2-methyl-1-benzofuran-3-carboxamide] showed an IC50 of 1000 to 20000 nM.
Work on `Cc1oc2ccc(OCC3CC3(C)C)cc2c1C(=O)NC1CCNCC1(F)F` (single isomer, unassigned) [Cpd 033-En3, N-(3,3-difluoropiperidin-4-yl)-5-[(2,2-dimethylcyclopropyl)methoxy]-2-methyl-1-benzofuran-3-carboxamide] yielded an IC50 of less than 1000 nM.
Molecule `Cc1oc2ccc(OCC3CC3(C)C)cc2c1C(=O)NC1CCNCC1(F)F` (single isomer, unassigned) [Cpd 033-En4, N-(3,3-difluoropiperidin-4-yl)-5-[(2,2-dimethylcyclopropyl)methoxy]-2-methyl-1-benzofuran-3-carboxamide] has an IC50 of 1000 to 20000 nM.
Work on `Cc1oc2ccc(OCC3CC3)cc2c1C(=O)NC1(C(N)=O)CCOC1` (single isomer, unassigned) [Cpd 035 - En1, N-(3-carbamoyloxolan-3-yl)-5-(cyclopropylmethoxy)-2-methyl-1-benzofuran-3-carboxamide] yielded an IC50 of less than 1000 nM.
With `Cc1oc2ccc(OCC3CC3)cc2c1C(=O)NC1(C(N)=O)CCOC1` (single isomer, unassigned) [Cpd 035 - En2, N-(3-carbamoyloxolan-3-yl)-5-(cyclopropylmethoxy)-2-methyl-1-benzofuran-3-carboxamide] the IC50 was less than 1000 nM.
`Cc1oc2ccc(OCC3(C(F)F)CC3)cc2c1C(=O)NC1(C(N)=O)CCOC1` (single isomer, unassigned) [Cpd 036 - En1, N-(3-carbamoyloxolan-3-yl)-5-{[1-(difluoromethyl)cyclopropyl]methoxy}-2-methyl-1-benzofuran-3-carboxamide] showed an IC50 of 1000 to 20000 nM.
With `Cc1oc2ccc(OCC3(C(F)F)CC3)cc2c1C(=O)NC1(C(N)=O)CCOC1` (single isomer, unassigned) [Cpd 036 - En2, N-(3-carbamoyloxolan-3-yl)-5-{[1-(difluoromethyl)cyclopropyl]methoxy}-2-methyl-1-benzofuran-3-carboxamide] the IC50 was less than 1000 nM.
In the case of `Cc1oc2ccc(OCC(F)F)cc2c1C(=O)NC(C)(CO)C(N)=O` (single isomer, unassigned) [Cpd 041 - En1, 2-{[5-(2,2-difluoroethoxy)-2-methyl-1-benzofuran-3-yl]formamido}-3-hydroxy-2-methylpropanamide], the IC50 is reported as less than 1000 nM.
